Values quoted from earlier work in patent publication US20220152000A1, “PROLONGED RELEASE FORMULATION COMPRISING TACROLIMUS” (PHARMATHEN S.A., priority 2019, published 2022).
In brackets after ≈: the same amount, converted by molar mass.

Tests used:
[1] = simultaneous ingestion of food versus fasted
CYP3A4 isoenzyme = target: T1, CYP3A4 isoenzyme (Homo sapiens, UniProt P08684); conditions: gut wall and liver
T1 construct: metabolized by the CYP3A4 isoenzyme in the gut wall and liver; from tissue; host or cells: gut wall and liver
T1 sequence (P08684 whole entry): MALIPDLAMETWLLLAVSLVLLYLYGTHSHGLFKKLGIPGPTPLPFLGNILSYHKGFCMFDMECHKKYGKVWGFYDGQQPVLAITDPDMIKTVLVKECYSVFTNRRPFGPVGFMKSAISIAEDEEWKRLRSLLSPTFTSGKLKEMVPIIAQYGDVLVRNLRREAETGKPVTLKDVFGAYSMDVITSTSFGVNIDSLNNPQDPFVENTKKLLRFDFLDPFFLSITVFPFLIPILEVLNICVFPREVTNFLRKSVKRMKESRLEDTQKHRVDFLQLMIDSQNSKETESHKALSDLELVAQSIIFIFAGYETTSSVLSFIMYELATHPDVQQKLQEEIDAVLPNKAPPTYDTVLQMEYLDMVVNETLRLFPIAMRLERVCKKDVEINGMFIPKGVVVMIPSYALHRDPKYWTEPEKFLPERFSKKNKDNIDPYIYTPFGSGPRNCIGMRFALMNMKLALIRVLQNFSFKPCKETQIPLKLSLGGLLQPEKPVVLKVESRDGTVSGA

- Solubility in ethanol (ethanol): 25 mg/mL (≈ 31.1 mM)
- Solubility in hexane, petroleum ether (hexane, petroleum ether): sparingly soluble
- Solubility in organic solvents (methanol, ethanol, acetone, ethyl acetate, diethyl ether, chloroform, dicloromethane): soluble
- Solubility in water (water): insoluble
- Metabolism by CYP3A4 (CYP3A4 isoenzyme): extensively metabolized
Structure (SMILES): C=CC[C@@H]1/C=C(\C)C[C@H](C)C[C@H](OC)[C@H]2O[C@@](O)(C(=O)C(=O)N3CCCC[C@H]3C(=O)O[C@H](/C(C)=C/[C@@H]3CC[C@@H](O)[C@H](OC)C3)[C@H](C)[C@@H](O)CC1=O)[C@H](C)C[C@@H]2OC [Tacrolimus]
- Absorption after oral administration, effect of food [1]: negatively influenced by simultaneous ingestion of food
